Measurements from PMC1084349 (BMC Neuroscience, 2005).
Where a SMILES comes first, the peptide text is derived from it.

What was measured:
rTas1r2-rTas1r3 = molecular target: T1, rTas1r2-rTas1r3 (Rattus norvegicus, UniProt Q923K1+Q9Z0R7); test: Calcium mobilization (FLIPR) in transfected HEK293T-Gα16gust44 cells, rat sweet receptor; details: asp 15 mM; cyc 30 mM; neo 0.1 mM; sac 10 mM; suc 100 mM; stev 1 mM
T1 sequence (Q9Z0R7 20-843): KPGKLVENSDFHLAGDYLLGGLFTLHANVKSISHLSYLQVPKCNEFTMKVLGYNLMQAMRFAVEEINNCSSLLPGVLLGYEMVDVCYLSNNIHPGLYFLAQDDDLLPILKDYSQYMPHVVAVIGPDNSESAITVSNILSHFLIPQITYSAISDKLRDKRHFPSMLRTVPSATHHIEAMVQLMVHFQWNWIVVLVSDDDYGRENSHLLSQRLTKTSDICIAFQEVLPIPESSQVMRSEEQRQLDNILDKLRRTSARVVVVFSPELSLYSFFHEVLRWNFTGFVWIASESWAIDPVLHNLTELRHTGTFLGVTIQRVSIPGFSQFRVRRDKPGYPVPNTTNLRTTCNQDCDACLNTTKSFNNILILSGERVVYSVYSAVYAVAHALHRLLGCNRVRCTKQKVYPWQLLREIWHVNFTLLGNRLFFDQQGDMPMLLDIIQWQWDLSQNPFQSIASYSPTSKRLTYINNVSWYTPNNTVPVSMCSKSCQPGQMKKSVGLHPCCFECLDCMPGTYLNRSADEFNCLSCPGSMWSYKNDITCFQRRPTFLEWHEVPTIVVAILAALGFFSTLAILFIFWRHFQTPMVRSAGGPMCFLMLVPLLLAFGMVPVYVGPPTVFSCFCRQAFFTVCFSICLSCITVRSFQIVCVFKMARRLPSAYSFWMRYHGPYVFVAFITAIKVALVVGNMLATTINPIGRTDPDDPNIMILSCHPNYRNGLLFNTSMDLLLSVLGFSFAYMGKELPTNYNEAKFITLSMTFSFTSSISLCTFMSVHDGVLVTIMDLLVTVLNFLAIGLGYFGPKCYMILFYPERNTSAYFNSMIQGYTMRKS
T1 sequence (Q923K1 21-858): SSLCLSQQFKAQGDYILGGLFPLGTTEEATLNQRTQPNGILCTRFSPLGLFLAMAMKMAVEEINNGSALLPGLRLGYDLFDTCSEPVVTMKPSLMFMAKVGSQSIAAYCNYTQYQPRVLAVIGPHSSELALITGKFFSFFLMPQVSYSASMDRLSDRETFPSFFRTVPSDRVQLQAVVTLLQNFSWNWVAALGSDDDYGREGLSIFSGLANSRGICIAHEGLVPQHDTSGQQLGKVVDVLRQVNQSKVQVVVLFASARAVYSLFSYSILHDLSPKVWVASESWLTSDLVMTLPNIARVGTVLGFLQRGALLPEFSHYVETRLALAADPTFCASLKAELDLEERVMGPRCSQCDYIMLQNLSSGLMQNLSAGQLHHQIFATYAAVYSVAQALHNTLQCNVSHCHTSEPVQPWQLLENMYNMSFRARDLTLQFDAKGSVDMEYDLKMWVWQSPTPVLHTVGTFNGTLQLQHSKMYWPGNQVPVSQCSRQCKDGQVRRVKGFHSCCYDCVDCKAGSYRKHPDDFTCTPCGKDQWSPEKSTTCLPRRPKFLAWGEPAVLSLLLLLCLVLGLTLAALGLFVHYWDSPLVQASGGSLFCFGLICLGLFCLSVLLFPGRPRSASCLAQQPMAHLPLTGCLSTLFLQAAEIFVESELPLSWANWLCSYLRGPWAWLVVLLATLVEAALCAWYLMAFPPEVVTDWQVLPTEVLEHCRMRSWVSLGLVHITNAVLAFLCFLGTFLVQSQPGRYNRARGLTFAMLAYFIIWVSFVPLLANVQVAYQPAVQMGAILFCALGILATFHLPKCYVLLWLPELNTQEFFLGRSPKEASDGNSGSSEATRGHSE

[1] = system: human TAS1R2-TAS1R3 heteromer; details: cited from earlier work

Row | activation of receptor (calcium response) (rTas1r2-rTas1r3) | Compound | activation of heteromer [1]
1 | robustly activated | C=C1C[C@@]23CC[C@H]4[C@@](C)(CCC[C@@]4(C)C(=O)O[C@@H]4O[C@H](CO)[C@@H](O)[C@H](O)[C@H]4O)[C@@H]2CC[C@]1(O[C@@H]1O[C@H](CO)[C@@H](O)[C@H](O)[C@H]1O[C@@H]1O[C@H](CO)[C@@H](O)[C@H](O)[C@H]1O)C3 [stevioside] | 
2 | did not activate | O=S(=O)(O)NC1CCCCC1 [cyclamate] | only activate the human
3 | did not activate | COc1ccc(CCC(=O)c2c(O)cc(O[C@@H]3O[C@H](CO)[C@@H](O)[C@H](O)[C@H]3O[C@@H]3O[C@@H](C)[C@H](O)[C@@H](O)[C@H]3O)cc2O)cc1O [neohesperidine dihydrochalcone] | 
4 | did not activate | COC(=O)[C@H](Cc1ccccc1)NC(=O)[C@@H](N)CC(=O)O [aspartame] (HELM PEPTIDE1{D.F.[CO[*:1]]}$$$$V2.0) | only activate the human
5 | robustly activated | OC[C@H]1O[C@@](CO)(O[C@H]2O[C@H](CO)[C@@H](O)[C@H](O)[C@H]2O)[C@@H](O)[C@@H]1O [sucrose] | 
